Numbered stars: 1 amine (or outer) side, 2 acyl side, 3 side chain; on linkers, the order of the positions; unused ones are H or OH. Bridge positions count the residues as written; N and C are the ends. Square brackets hold non-standard residues; d marks the D form. Peptide text beside a SMILES is read from it. TATA = O=C(CC[*:1])N1CN(C(=O)CC[*:2])CN(C(=O)CC[*:3])C1; Cba = N[C@@H](CC1CCC1)C(=O)O
target: T1, Fc-tagged human NKp46 (Homo sapiens, UniProt O76036); assay: NKp46 SPR assay (Method 1 and/or Method 2); format: binding; details: SPR Method 1 and/or Method 2, Table 3B
T1 construct: purchased ACROBiosystems NC1-H5257
Experimental: SPR experiments were performed to determine ka (M^−1s^−1), kd (s^−1), KD (nM) values (where measurable) of various bicyclic peptides to immobilised NKp46.
For analysis of peptide binding to NKp46, a Biacore 3000 instrument was used with a Cytiva Streptavidin chip. Capture of the protein (recombinant human NKp46-Fc fusion biotinylated via Avi-tag) was carried out at 25° C. with HBS-N (10 mM HEPES, 0.15 M NaCl, pH 7.4) as the running buffer and biotinylated NKp46 was captured to a level of 400-800 RU using a dilution of protein to 0.2 μM in buffer. Buffer was then changed to PBS/0.05% Tween 20 and a dilution series of the peptides was prepared in this buffer with a final DMSO concentration of 0.5% with a top peptide concentration of 100 nM-5000 nM and 6 further 2 or 3-fold dilutions. The SPR analysis was run at 25° C. and a flow rate of 50 μl/min with 60 seconds association and 200-400 seconds dissociation time. Data were corrected for DMSO excluded volume effects. All data were double-referenced for blank injections and reference surface using standard processing procedures and data processing and kinetic fitting were performed using Scrubber software, version 2.0c (BioLogic Software). Data were fitted using simple 1:1 binding model allowing for mass transport effects where appropriate.
Peptides were tested against Fc-tagged human NKp46 (ACROBiosystems, cat no. NC1-H5257).
For analysis of peptide binding, a Biacore 8k+ instrument was used with a CM5 chip (Cytiva). All experiments were carried out at 25° C. Anti-human IgG (Fc) antibody (Cytiva) was immobilized on all flow cells by standard amine coupling chemistry. The running buffer was HBS-N(Cytiva, 10 mM HEPES, 0.15 M NaCl, pH 7.4) and the flow rate was 10 μL/min. The carboxymethyl dextran surface was activated with a 1:1 ratio of 0.4 M 1-ethyl-3-(3-dimethylaminopropyl) carbodiimide hydrochloride (EDC)/0.1 M N-hydroxy succinimide (NHS) (Cytiva) for 420s. […] Residual activated groups were blocked with a 420 s injection of 1 M ethanolamine (pH 8.5). The final surface density was 3000-5000 RU. Fc-tagged human NKp46 was diluted to 0.1 μM in HBS-N and was captured on flow cell 2 only of the sensor chip at a flow rate of 10 μL/min to 500-1000 RU. The buffer was then changed to PBS-P+(Cytiva) supplemented with 2% DMSO. […] The flow rate was 50 μL/min with 60 s association and 400 s dissociation. Data were corrected for DMSO volume exclusion effects. All data were double-referenced against blank injections and reference surface response using standard processing procedures. Data processing and kinetic fitting was performed using Biacore Insight Evaluation Software with Extended Screening and Characterization Extension (Cytiva). Data were fitted using steady state affinity 1:1 binding model to determine KD. Data were fitted using kinetic 1:1 binding model to determine kinetic constants where appropriate.

T1 sequence (O76036 22-304): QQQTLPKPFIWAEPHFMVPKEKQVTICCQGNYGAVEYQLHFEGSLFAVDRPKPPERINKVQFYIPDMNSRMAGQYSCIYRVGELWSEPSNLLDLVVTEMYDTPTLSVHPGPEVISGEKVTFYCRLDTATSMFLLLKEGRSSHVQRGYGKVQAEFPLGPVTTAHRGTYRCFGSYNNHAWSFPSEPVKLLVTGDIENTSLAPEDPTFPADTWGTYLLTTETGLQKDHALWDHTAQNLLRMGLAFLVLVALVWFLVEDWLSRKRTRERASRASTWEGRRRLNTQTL

SMILES | Kd
CC(C)C[C@@H]1NC(=O)[C@@H]2CSCCC(=O)N3CN(CN(C3)C(=O)CCSC[C@@H](C(=O)N[C@@H](C)C(N)=O)NC(=O)[C@H](C(C)C)NC(=O)[C@H](CCCCN)NC(=O)CNC(=O)[C@H]([C@@H](C)O)NC(=O)[C@H](Cc3c[nH]cn3)NC1=O)C(=O)CCSC[C@H](NC(=O)[C@H](C)N)C(=O)N[C@@H](CC(N)=O)C(=O)N[C@@H](CC(C)C)C(=O)N[C@@H](CCC(N)=O)C(=O)N[C@@H](CCC(N)=O)C(=O)N[C@@H](C)C(=O)N2 [BCY14454, A-(SEQ ID NO: 63)-A] (H-ACNLQQACLHTGKVCA-NH2; linker 2-8-15 via TATA; N-terminus assumed) | 2760 nM
CSCC[C@@H]1NC(=O)[C@H](CCCCN)NC(=O)[C@@H]2CCCN2C(=O)[C@H](Cc2c[nH]cn2)NC(=O)[C@H]([C@@H](C)O)NC(=O)[C@H](CC(N)=O)NC(=O)[C@@H]2CCCN2C(=O)[C@@H]2CSCCC(=O)N3CN(CN(C3)C(=O)CCSC[C@@H](C(=O)N[C@@H](C)C(N)=O)NC1=O)C(=O)CCSC[C@H](NC(=O)[C@H](C)N)C(=O)N[C@@H](CC(C)C)C(=O)N[C@@H](CC(C)C)C(=O)N[C@@H](Cc1c[nH]cn1)C(=O)N[C@@H](CC(=O)O)C(=O)N[C@@H](Cc1c[nH]cn1)C(=O)N2 [BCY14457, A-(SEQ ID NO: 103)-A] (H-ACLLHDHCPNTHPKMCA-NH2; linker 2-8-16 via TATA) | 2270 nM
CC[C@H](C)[C@@H]1NC(=O)[C@@H]2CSCCC(=O)N3CN(CN(C3)C(=O)CCSC[C@@H](C(=O)N[C@@H](C)C(N)=O)NC(=O)[C@H](C(C)C)NC(=O)CNC(=O)[C@H](Cc3c[nH]c4ccccc34)NC1=O)C(=O)CCSC[C@H](NC(=O)[C@H](C)N)C(=O)N[C@@H](CC(=O)O)C(=O)N[C@@H](CC(C)C)C(=O)N[C@@H]([C@@H](C)O)C(=O)N[C@@H]([C@@H](C)O)C(=O)N[C@@H](Cc1c[nH]cn1)C(=O)N[C@@H](CC(N)=O)C(=O)N2 [BCY14458, A-(SEQ ID NO: 104)-A] (H-ACDLTTHNCIWGVCA-NH2; linker 2-9-14 via TATA; C-terminus assumed) | 1260 nM
CSCC[C@@H]1NC(=O)[C@@H]2CSCCC(=O)N3CN(CN(C3)C(=O)CCSC[C@@H](C(=O)N[C@@H](C)C(N)=O)NC(=O)[C@H](C(C)C)NC(=O)[C@H](CCCCN)NC(=O)CNC(=O)[C@H]([C@@H](C)O)NC(=O)[C@H](CCC(N)=O)NC1=O)C(=O)CCSC[C@H](NC(=O)[C@H](C)N)C(=O)N[C@@H](CC(N)=O)C(=O)N[C@@H](CC(C)C)C(=O)N[C@@H](CCC(N)=O)C(=O)N[C@@H](C)C(=O)N1CCC[C@H]1C(=O)N2 [BCY15098, A-(SEQ ID NO: 3)-A] | 1070 nM
CSCC[C@@H]1NC(=O)[C@@H]2CSCCC(=O)N3CN(CN(C3)C(=O)CCSC[C@@H](C(=O)N[C@@H](C)C(N)=O)NC(=O)[C@@H]3CCCN3C(=O)[C@H](Cc3ccccc3)NC(=O)[C@H](CCCCN)NC1=O)C(=O)CCSC[C@H](NC(=O)[C@H](C)N)C(=O)N[C@@H](CC(N)=O)C(=O)N[C@@H](CC(C)C)C(=O)N[C@@H](CCC(N)=O)C(=O)N[C@@H](CC(N)=O)C(=O)N1CCC[C@H]1C(=O)N2 [BCY15102, A-(SEQ ID NO: 2)-A] (H-ACNLQNPCMKFPCA-NH2; linker 2-8-13 via TATA; C-terminus assumed) | 1090 ± 99 nM
CC(C)C[C@@H]1NC(=O)[C@@H](NC(=O)[C@H](C)N)CSCCC(=O)N2CN3CN(C2)C(=O)CCSC[C@H](NC(=O)[C@H](Cc2c[nH]cn2)NC(=O)[C@H](CC(=O)O)NC(=O)[C@H](Cc2c[nH]cn2)NC(=O)[C@H](CC(C)C)NC1=O)C(=O)N1CCC[C@H]1C(=O)N[C@@H](CC(N)=O)C(=O)N[C@@H]([C@@H](C)O)C(=O)N[C@@H](Cc1c[nH]cn1)C(=O)N1CCC[C@H]1C(=O)N[C@@H](CCCCN)C(=O)N[C@@H](CC(C)C)C(=O)N[C@H](C(=O)N[C@@H](C)C(N)=O)CSCCC3=O [BCY15103, A-(SEQ ID NO: 5)-A] (H-ACLLHDHCPNTHPKLCA-NH2; linker 2-8-16 via TATA) | 1660 ± 544 nM

Other lines, results leading:

Kd | SMILES
2880 nM | CSCC[C@@H]1NC(=O)[C@H](CCCCN)NC(=O)[C@@H]2CCCN2C(=O)[C@H](Cc2c[nH]cn2)NC(=O)[C@H]([C@@H](C)O)NC(=O)[C@H](CC(N)=O)NC(=O)[C@@H]2CCCN2C(=O)[C@@H]2CSCCC(=O)N3CN(CN(C3)C(=O)CCSC[C@@H](C(=O)N[C@@H](C)C(N)=O)NC1=O)C(=O)CCSC[C@H](NC(=O)[C@H](C)N)C(=O)N[C@@H](CC(C)C)C(=O)N[C@@H](CC(C)C)C(=O)N[C@@H](Cc1c[nH]cn1)C(=O)N[C@@H](CCC(=O)O)C(=O)N[C@@H](Cc1c[nH]cn1)C(=O)N2 [BCY15104, A-(SEQ ID NO: 6)-A] (H-ACLLHEHCPNTHPKMCA-NH2; linker 2-8-16 via TATA)
2670 nM | CC[C@H](C)[C@@H]1NC(=O)[C@H]([C@@H](C)CC)NC(=O)[C@@H]2CCCN2C(=O)[C@H](Cc2c[nH]cn2)NC(=O)[C@H]([C@@H](C)O)NC(=O)[C@H](CC(N)=O)NC(=O)[C@@H]2CCCN2C(=O)[C@@H]2CSCCC(=O)N3CN(CN(C3)C(=O)CCSC[C@@H](C(=O)N[C@@H](C)C(N)=O)NC1=O)C(=O)CCSC[C@H](NC(=O)[C@H](C)N)C(=O)N[C@@H](CC(C)C)C(=O)N[C@@H](CC(C)C)C(=O)N[C@@H](Cc1c[nH]cn1)C(=O)N[C@@H](CC(=O)O)C(=O)N[C@@H](Cc1c[nH]cn1)C(=O)N2 [BCY15106, A-(SEQ ID NO: 8)-A] (H-ACLLHDHCPNTHPIICA-NH2; linker 2-8-16 via TATA)
44 nM | CC(C)C[C@@H]1NC(=O)[C@H](Cc2ccc(O)cc2)NC(=O)[C@H](CC(=O)O)NC(=O)[C@@H]2CCCN2C(=O)[C@H](CC(C)C)NC(=O)[C@H](Cc2ccc(O)cc2)NC(=O)[C@@H](NC(=O)[C@H](C)N)CSCCC(=O)N2CN3CN(C2)C(=O)CCSC[C@@H](C(=O)N[C@@H](C)C(N)=O)NC(=O)[C@H](Cc2ccc(O)c(C(C)(C)C)c2)NC(=O)[C@H](CCC(=O)O)NC(=O)[C@H](CC(=O)O)NC(=O)CNC(=O)[C@H](CSCCC3=O)NC1=O [BCY15652, A-(SEQ ID NO: 109)-A]
3.9 nM | CC(C)C[C@@H]1NC(=O)[C@H](Cc2ccc(O)cc2)NC(=O)[C@H](CC(=O)O)NC(=O)[C@@H]2CCCN2C(=O)[C@H](CC2CCC2)NC(=O)[C@H](Cc2ccc(O)cc2)NC(=O)[C@@H](NC(=O)[C@H](C)N)CSCCC(=O)N2CN3CN(C2)C(=O)CCSC[C@H](NC1=O)C(=O)N[C@H](C)C(=O)N[C@@H](CC(=O)O)C(=O)N[C@@H](CCC(=O)O)C(=O)N[C@@H](Cc1ccc(O)cc1)C(=O)N[C@H](C(=O)N[C@@H](C)C(N)=O)CSCCC3=O [BCY16132, A-(SEQ ID NO: 40)-A] (H-ACY[Cba]PDYLC[dA]DEYCA-NH2; linker 2-9-14 via TATA; N-terminus assumed)
3180 nM | CC[C@H](C)[C@@H]1NC(=O)CNC(=O)[C@H](Cc2c[nH]c3ccccc23)NC(=O)[C@H](CCC(N)=O)NC(=O)[C@@H]2CSCCC(=O)N3CN(CN(C3)C(=O)CCSC[C@H](N)C(=O)N[C@@H](CC(=O)O)C(=O)N[C@@H](CC(C)C)C(=O)N[C@@H]([C@@H](C)O)C(=O)N[C@@H]([C@@H](C)O)C(=O)N[C@@H](Cc3c[nH]cn3)C(=O)N[C@@H](CC(N)=O)C(=O)N2)C(=O)CCSC[C@@H](C(N)=O)NC1=O [BCY18262, (SEQ ID NO: 11)]
1480 nM | CC[C@H](C)[C@@H]1NC(=O)CNC(=O)[C@H](Cc2c[nH]c3ccccc23)NC(=O)[C@H](CCC(N)=O)NC(=O)[C@@H]2CSCCC(=O)N3CN(CN(C3)C(=O)CCSC[C@@H](C(=O)N[C@@H](C)C(N)=O)NC1=O)C(=O)CCSC[C@H](NC(=O)[C@H](C)N)C(=O)N[C@@H](CC(=O)O)C(=O)N[C@@H](CC(C)C)C(=O)N[C@@H](C)C(=O)N[C@@H]([C@@H](C)O)C(=O)N[C@@H](Cc1c[nH]cn1)C(=O)N[C@@H](CC(N)=O)C(=O)N2 [BCY18265, A-(SEQ ID NO: 117)-A] (H-ACDLATHNCQWGICA-NH2; linker 2-9-14 via TATA; C-terminus assumed)
1640 nM | CC[C@H](C)[C@@H]1NC(=O)CNC(=O)[C@H](Cc2c[nH]c3ccccc23)NC(=O)[C@H](C)NC(=O)[C@@H]2CSCCC(=O)N3CN(CN(C3)C(=O)CCSC[C@@H](C(=O)N[C@@H](C)C(N)=O)NC1=O)C(=O)CCSC[C@H](NC(=O)[C@H](C)N)C(=O)N[C@@H](CC(=O)O)C(=O)N[C@@H](CC(C)C)C(=O)N[C@@H]([C@@H](C)O)C(=O)N[C@@H]([C@@H](C)O)C(=O)N[C@@H](Cc1c[nH]cn1)C(=O)N[C@@H](CC(N)=O)C(=O)N2 [BCY18269, A-(SEQ ID NO: 119)-A] (H-ACDLTTHNCAWGICA-NH2; linker 2-9-14 via TATA)
